Reference: the supplement of paper PMC10307832

How the values were obtained:
Assay in all cases: relative viability (nuclei count vs DMSO), 5 days (fraction); higher = more cells survive
Olaparib + OSI-027 = compound: O=C(c1cc(Cc2n[nH]c(=O)c3ccccc23)ccc1F)N1CCN(C(=O)C2CC2)CC1 [Olaparib] + COc1cccc2cc(-c3nc([C@H]4CC[C@H](C(=O)O)CC4)n4ncnc(N)c34)[nH]c12 [OSI-027] (partner 0.5 µM)
In short: (§1)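 Cells from lung cancer lines were seeded into 1536-well plates and, one day later, dosed by pin tool. Treatments were either a single drug or a fixed dose of an anchor drug with five library-drug doses (not always all listed) in √10 steps. After 5 days, nuclei were stained in a one-step fixation (final 0.05% Triton X-100, 1% formaldehyde, 1 ug/ml Hoechst) and counted on 4× images, and relative viability is the treated-to-vehicle nuclei ratio, as the median of duplicate plates.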

Carfilzomib + Linsitinib = compound: CC(C)C[C@H](NC(=O)[C@H](CCc1ccccc1)NC(=O)CN1CCOCC1)C(=O)N[C@@H](Cc1ccccc1)C(=O)N[C@@H](CC(C)C)C(=O)[C@@]1(C)CO1 [Carfilzomib] + C[C@]1(O)C[C@@H](c2nc(-c3ccc4ccc(-c5ccccc5)nc4c3)c3c(N)nccn32)C1 [Linsitinib] (partner 1 µM)
In short: as §1

Carfilzomib + Navitoclax = compound: CC(C)C[C@H](NC(=O)[C@H](CCc1ccccc1)NC(=O)CN1CCOCC1)C(=O)N[C@@H](Cc1ccccc1)C(=O)N[C@@H](CC(C)C)C(=O)[C@@]1(C)CO1 [Carfilzomib] + CC1(C)CCC(c2ccc(Cl)cc2)=C(CN2CCN(c3ccc(C(=O)NS(=O)(=O)c4ccc(N[C@H](CCN5CCOCC5)CSc5ccccc5)c(S(=O)(=O)C(F)(F)F)c4)cc3)CC2)C1 [Navitoclax] (partner 0.5 µM)
In short: as §1

Olaparib + Dasatinib = compound: O=C(c1cc(Cc2n[nH]c(=O)c3ccccc23)ccc1F)N1CCN(C(=O)C2CC2)CC1 [Olaparib] + Cc1nc(Nc2ncc(C(=O)Nc3c(C)cccc3Cl)s2)cc(N2CCN(CCO)CC2)n1 [Dasatinib] (partner 0.075 µM)
In short: as §1

Cell Line | relative viability (Olaparib + OSI-027; first compound 0.08 µM) | relative viability (Olaparib + OSI-027; first compound 0.253 µM) | relative viability (Olaparib + OSI-027; first compound 2.53 µM) | relative viability (Olaparib + OSI-027; first compound 8 µM) | relative viability (Carfilzomib + Linsitinib; first compound 0.001 µM) | relative viability (Carfilzomib + Linsitinib; first compound 0.003162 µM) | relative viability (Carfilzomib + Linsitinib; first compound 0.01 µM) | relative viability (Carfilzomib + Linsitinib; first compound 0.03162 µM) | relative viability (Carfilzomib + Linsitinib; first compound 0.1 µM) | relative viability (Carfilzomib + Navitoclax; first compound 0.001 µM) | relative viability (Carfilzomib + Navitoclax; first compound 0.003162 µM) | relative viability (Carfilzomib + Navitoclax; first compound 0.01 µM) | relative viability (Carfilzomib + Navitoclax; first compound 0.03162 µM) | relative viability (Carfilzomib + Navitoclax; first compound 0.1 µM) | relative viability (Olaparib + Dasatinib; first compound 0.08 µM) | relative viability (Olaparib + Dasatinib; first compound 0.253 µM) | relative viability (Olaparib + Dasatinib; first compound 2.53 µM) | relative viability (Olaparib + Dasatinib; first compound 8 µM)
SK-MES-1 | 0.674 | 0.553 | 0.577 | 0.459 | 1.17 | 1.16 | 1.17 | 1.03 | 0.334 | 1.29 | 1.25 | 1.26 | 0.416 | 0.172 | 0.41 | 0.323 | 0.431 | 0.228
SW 1573 | 0.738 | 0.675 | 0.471 | 0.517 | 0.736 | 0.881 | 0.75 | 0.268 | 0.0735 | 1.06 | 1.11 | 0.8 | 0.0728 | 0.0538 | 0.698 | 0.456 | 0.504 | 0.354
UMC-11 | 0.474 | 0.392 | 0.481 | 0.334 | 0.981 | 1.03 | 1.01 | 0.949 | 0.224 | 0.278 | 0.326 | 0.332 | 0.269 | 0.103 | 0.464 | 0.47 | 0.452 | 0.396
